# Source: ChEMBL document CHEMBL1133644, “Platelet glycoprotein IIb-IIIa antagonists as prototypical integrin blockers: novel parenteral and potential oral antithrombotic agents” (J Med Chem, 2000)
# Positions of bridges follow the written chain, without caps; N, C: chain ends. Non-standard residues stand in square brackets, D forms with d. Residues, ends and D or L forms follow the SMILES beside them. NMeR = CN[C@@H](CCCNC(=N)N)C(=O)O; hArg = N=C(N)NCCCC[C@H](N)C(=O)O; 3Amb = NCc1cccc(C(=O)O)c1; dAbu = CC[C@@H](N)C(=O)O; Mpa = O=C(O)CCS
# Experiments:
# [1] = organism: Homo sapiens; experiment: half-life was measured on unactivated human platelets
# [2] = half life was measured on dogs; format: ADME, organism-based, Canis lupus familiaris; settings: dog, in vivo
# [3] = target: T1, Integrin alpha-IIb/beta-3 (Homo sapiens, UniProt P05106+P08514); experiment: Inhibition of ex vivo platelet aggregation after oral administration of 0.5 mg/kg to cynomolgus monkeys at 2-8h; format: functional, organism-based; set-up: dose 0.5 mg/kg; settings: at 0.5 mg/kg
# [4] = half-life of compound in human; settings: in vivo
# [5] = Oral bioavailability in dog; format: ADME, organism-based, Canis lupus familiaris; settings: in vivo
# [6] = target: T1, Integrin alpha-IIb/beta-3; experiment: Dissociation constant for alpha IIb beta-3 integrin rested platelets; format: functional
# Target sequence in this assay (P05106 27-788 limits assumed): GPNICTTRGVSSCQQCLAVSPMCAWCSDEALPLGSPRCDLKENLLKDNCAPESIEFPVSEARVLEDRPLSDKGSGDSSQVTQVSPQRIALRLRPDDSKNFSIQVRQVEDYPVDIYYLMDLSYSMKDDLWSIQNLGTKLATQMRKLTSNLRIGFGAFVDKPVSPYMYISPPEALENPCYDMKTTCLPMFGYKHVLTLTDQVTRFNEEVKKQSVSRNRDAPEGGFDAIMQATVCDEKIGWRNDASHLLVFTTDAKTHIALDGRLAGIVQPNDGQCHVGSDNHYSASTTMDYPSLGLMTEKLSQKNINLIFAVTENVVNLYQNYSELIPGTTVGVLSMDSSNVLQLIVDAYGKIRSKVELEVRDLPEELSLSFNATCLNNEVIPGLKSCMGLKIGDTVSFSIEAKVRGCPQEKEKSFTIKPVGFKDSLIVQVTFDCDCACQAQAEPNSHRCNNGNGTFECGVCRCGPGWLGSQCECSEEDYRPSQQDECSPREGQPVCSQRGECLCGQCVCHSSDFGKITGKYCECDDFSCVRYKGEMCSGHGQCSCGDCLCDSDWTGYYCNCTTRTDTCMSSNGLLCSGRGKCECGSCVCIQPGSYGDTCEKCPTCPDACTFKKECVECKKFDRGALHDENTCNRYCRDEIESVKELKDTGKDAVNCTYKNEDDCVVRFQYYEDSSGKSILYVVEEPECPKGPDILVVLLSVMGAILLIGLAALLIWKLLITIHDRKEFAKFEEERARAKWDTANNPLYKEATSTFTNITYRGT
# Target sequence in this assay (P08514 32-887 limits assumed): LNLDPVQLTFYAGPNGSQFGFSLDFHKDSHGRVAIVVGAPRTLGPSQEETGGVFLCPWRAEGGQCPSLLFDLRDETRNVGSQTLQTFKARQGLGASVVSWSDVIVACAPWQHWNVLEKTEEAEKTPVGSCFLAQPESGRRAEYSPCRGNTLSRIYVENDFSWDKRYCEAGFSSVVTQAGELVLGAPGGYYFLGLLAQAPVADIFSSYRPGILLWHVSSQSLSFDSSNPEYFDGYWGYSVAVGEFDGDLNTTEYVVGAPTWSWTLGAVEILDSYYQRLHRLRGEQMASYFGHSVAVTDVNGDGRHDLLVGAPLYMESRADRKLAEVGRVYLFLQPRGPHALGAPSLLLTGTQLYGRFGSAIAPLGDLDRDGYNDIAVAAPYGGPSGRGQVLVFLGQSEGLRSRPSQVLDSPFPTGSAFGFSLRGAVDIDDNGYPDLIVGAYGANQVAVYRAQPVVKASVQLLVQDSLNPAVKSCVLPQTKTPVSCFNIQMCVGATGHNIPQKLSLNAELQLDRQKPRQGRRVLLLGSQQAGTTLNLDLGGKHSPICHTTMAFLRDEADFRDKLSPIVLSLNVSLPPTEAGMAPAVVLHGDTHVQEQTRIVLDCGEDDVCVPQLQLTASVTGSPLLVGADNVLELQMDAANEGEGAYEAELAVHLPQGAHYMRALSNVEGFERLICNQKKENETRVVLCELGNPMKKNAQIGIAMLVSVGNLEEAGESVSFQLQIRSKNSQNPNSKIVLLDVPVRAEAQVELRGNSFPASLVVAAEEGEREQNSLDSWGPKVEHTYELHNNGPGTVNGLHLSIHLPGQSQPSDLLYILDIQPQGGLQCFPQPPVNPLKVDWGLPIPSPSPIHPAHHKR
# Target sequence in this assay (P08514 891-1039 limits assumed): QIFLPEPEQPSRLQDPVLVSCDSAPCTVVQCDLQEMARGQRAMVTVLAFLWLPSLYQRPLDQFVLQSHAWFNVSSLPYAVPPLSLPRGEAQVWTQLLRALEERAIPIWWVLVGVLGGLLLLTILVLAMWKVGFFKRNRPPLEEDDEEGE
# [7] = target: T1, Integrin alpha-IIb/beta-3; experiment: Inhibition of platelet aggregation after administration of 30 ug/kg iv bolus to dogs within first 1-15 min; format: functional, organism-based; settings: Canis lupus familiaris; target entry is the homologue from another species
# [8] = oral bio availability was measured on dogs; format: ADME, organism-based, Canis lupus familiaris; settings: dog, in vivo
# [9] = target: T1, Integrin alpha-IIb/beta-3; experiment: Inhibition of fibrinogen binding to alpha IIb beta-3 integrin; format: protein-complex assay
# Target sequence in this assay (P05106 27-788 limits assumed): as the sequence (P05106 27-788 limits assumed) above
# Target sequence in this assay (P08514 32-887 limits assumed): as the sequence (P08514 32-887 limits assumed) above
# Target sequence in this assay (P08514 891-1039 limits assumed): as the sequence (P08514 891-1039 limits assumed) above
# [10] = target: T1, Integrin alpha-IIb/beta-3; experiment: Dissociation constant for [3H]-DMP728 binding to alphaIIb beta III integrin; format: protein-complex assay
# Target sequence in this assay (P05106 27-788 limits assumed): as the sequence (P05106 27-788 limits assumed) above
# Target sequence in this assay (P08514 32-887 limits assumed): as the sequence (P08514 32-887 limits assumed) above
# Target sequence in this assay (P08514 891-1039 limits assumed): as the sequence (P08514 891-1039 limits assumed) above
# [11] = The biological half life was measured on dog; format: ADME, organism-based, Canis lupus familiaris; settings: in vivo
# [12] = oral bioavailability was measured in dogs; format: ADME, organism-based, Canis lupus familiaris; settings: dog, in vivo
# [13] = In vitro inhibition of gel filtered platelet aggregation induced by ADP.
# [14] = oral bioavailability was measured on rats; format: ADME, organism-based; settings: rat, in vivo
# [15] = oral bioavailability was measured on rhesus monkey; format: ADME, organism-based, Macaca mulatta; settings: in vivo
# [16] = Inhibition of vitronectin receptor binding; set-up: species or system Homo sapiens
# [17] = biological half-life was measured on dogs; format: ADME, organism-based, Canis lupus familiaris; settings: dog, in vivo
# [18] = biological half-life was measured on rhesus monkeys; format: ADME, organism-based, Macaca mulatta; settings: rhesus monkey, in vivo
# [19] = target: T1, Integrin alpha-IIb/beta-3; experiment: Inhibition of fibrinogen binding to alpha IIb beta-3 integrin using thrombin inhibitor PPACK as anticoagulant; format: functional
# Target sequence in this assay (P05106 27-788 limits assumed): as the sequence (P05106 27-788 limits assumed) above
# Target sequence in this assay (P08514 32-887 limits assumed): as the sequence (P08514 32-887 limits assumed) above
# Target sequence in this assay (P08514 891-1039 limits assumed): as the sequence (P08514 891-1039 limits assumed) above
# [20] = Bioavailability in humans; format: ADME, organism-based; settings: human, in vivo
# [21] = Half-life in humans; format: ADME, organism-based; settings: human, in vivo
# [22] = target: T1, Integrin alpha-IIb/beta-3; experiment: Inhibition of ex vivo maximal platelet aggregation in conscious dogs after oral administration of 4 mg/kg; settings: Canis lupus familiaris; target entry is the homologue from another species; at 4 mg/kg
# [23] = Inhibition of platelet aggregation
# [24] = biological half-life was measured on dog; format: ADME, organism-based, Canis lupus familiaris; settings: in vivo
# [25] = oral bioavailability was measured in rhesus monkeys; format: ADME, organism-based, Macaca mulatta; settings: rhesus monkey, in vivo
# [26] = target: T1, Integrin alpha-IIb/beta-3; experiment: Inhibition of fibrinogen binding to activated platelets
# Target sequence in this assay (P05106 27-788 limits assumed): as the sequence (P05106 27-788 limits assumed) above
# Target sequence in this assay (P08514 32-887 limits assumed): as the sequence (P08514 32-887 limits assumed) above
# Target sequence in this assay (P08514 891-1039 limits assumed): as the sequence (P08514 891-1039 limits assumed) above
# [27] = target: T1, Integrin alpha-IIb/beta-3; experiment: Inhibition of fixed platelet aggregation; format: functional
# Target sequence in this assay (P05106 27-788 limits assumed): as the sequence (P05106 27-788 limits assumed) above
# Target sequence in this assay (P08514 32-887 limits assumed): as the sequence (P08514 32-887 limits assumed) above
# Target sequence in this assay (P08514 891-1039 limits assumed): as the sequence (P08514 891-1039 limits assumed) above
# [28] = target: T1, Integrin alpha-IIb/beta-3; experiment: Inhibition of [125]fibrinogen binding to alpha IIb beta-3 integrin; format: protein-complex assay
# [29] = organism: Homo sapiens; experiment: biological half-life was measured on unactivated human platelets
# [30] = target: T1, Integrin alpha-IIb/beta-3; experiment: Inhibition of platelet aggregation after oral administration of 3 mg/kg to guinea pigs at 8 hr; format: functional, organism-based; set-up: dose 3 mg/kg; settings: Cavia porcellus; target entry is the homologue from another species; at 3 mg/kg
# [31] = target: T1, Integrin alpha-IIb/beta-3; experiment: Inhibition of platelet aggregation after oral administration of 3 mg/kg to guinea pigs within 1 hr; format: functional, organism-based; set-up: dose 3 mg/kg; settings: Cavia porcellus; target entry is the homologue from another species; at 3 mg/kg
# [32] = target: T1, Integrin alpha-IIb/beta-3; experiment: Inhibition of platelet aggregation after 0.25 mg/kg/day dose over 4 days at trough plasma concentrations in dogs; format: functional, organism-based; settings: Canis lupus familiaris, target entry is the homologue from another species
# [33] = Duration of action in dog at a dose of 1 mg/kg i.d.; format: ADME, organism-based, Canis lupus familiaris; set-up: dose 1 mg/kg, route intraduodenal; settings: in vivo, other
# [34] = target: T1, Integrin alpha-IIb/beta-3; experiment: Inhibition of alpha IIb beta III mediated platelet aggregation
# [35] = target: T1, Integrin alpha-IIb/beta-3; experiment: Inhibition of platelet aggregation after 10 ug/kg/day dose over 6 days in dogs; format: functional; settings: Canis lupus familiaris; target entry is the homologue from another species
# [36] = target: T1, Integrin alpha-IIb/beta-3; experiment: Percent inhibition of gel filtered platelet aggregation induced by ADP; format: functional; settings: concentration not given here
# [37] = target: T1, Integrin alpha-IIb/beta-3; experiment: Inhibition of platelet aggregation after administration of 10 ug/kg iv to dogs at 8 hr; format: functional, organism-based; settings: Canis lupus familiaris; target entry is the homologue from another species
# [38] = target: T1, Integrin alpha-IIb/beta-3; experiment: Inhibition of platelet aggregation after administration of 10 ug/kg iv to dogs within 1 min; format: functional, organism-based; settings: Canis lupus familiaris; target entry is the homologue from another species
# [39] = target: T1, Integrin alpha-IIb/beta-3; experiment: Inhibition of platelet aggregation after administration of 0.1 mg/kg at 24 hr; settings: Canis lupus familiaris
# [40] = oral bioavailability was measured on dogs and rats; format: ADME, organism-based; settings: eutheria, in vivo
compound,measurement,setting,value
Cc1noc(C)c1S(=O)(=O)N[C@@H](CNC(=O)C[C@H]1CC(c2ccc(C(=N)N)cc2)=NO1)C(=O)O,T1/2,[1],0.533 h
O=C(O)C[C@H](NC(=O)[C@@H]1CCCN(C(=O)CCC2CCNCC2)C1)c1cccnc1 [ELAROFIBAN],half-life,[2],1.42 h
Cc1c(C(=O)NCCC(=O)O)s/c(=N\C(=O)c2ccc(C(=N)N3CCC4(CC3)OCCO4)cc2)n1C,inhibition,[3],> 80%
CCCCS(=O)(=O)N[C@@H](Cc1ccc(OCCCCC2CCNCC2)cc1)C(=O)O [TIROFIBAN],half-life,[4],0.5 h
C[C@H](CC(=O)O)NC(=O)CN1CCC[C@@H](CCC2CCNCC2)C1=O,bioavailability,[5],16%
same,Kd,[6],650 nM
same,inhibition,[7],> 90%
CC[C@H]1NC(=O)c2cccc(c2)CNC(=O)[C@H](CC(=O)O)NC(=O)CNC(=O)[C@H](CCCN=C(N)N)N(C)C1=O (cyclo([NMeR]GD[3Amb][dAbu])),bioavailability,[8],12%
same,IC50,[9],2.3 nM
same,Kd,[10],0.1 nM
C#C[C@H](CC(=O)O)NC(=O)CCC(=O)Nc1ccc(C(=N)N)cc1,bioavailability,[5],53%
same,half-life,[11],6.5 h
O=C(CCCC1CCNCC1)NCC(=O)N[C@H](CCc1c[nH]c2ccccc12)C(=O)O,bioavailability,[12],4.9%
O=C(NC[C@H](NS(=O)(=O)c1cccnc1)C(=O)O)c1ccc2c(c1)C(=O)N(CCC1CCNCC1)C2,IC50,[13],15 nM
CCOC(=O)CCN1CC(=O)N(C)c2ccc(C#Cc3ccc(C(=N)NC(=O)OCC)cc3)cc2C1=O,bioavailability,[14],6%
same,bioavailability,[15],21%
CN1C(=O)c2ccccc2SSc2ccccc2NC(=O)[C@H](CC(=O)O)NC(=O)CNC(=O)[C@@H]1CCCN=C(N)N [SKF-107260],Ki,[16],3.5 nM
C#C[C@H](CC(=O)OCC)NC(=O)CCC(=O)Nc1ccc(C(=N)N)cc1 [XEMILOFIBAN],F,[5],53%
C[C@H](NC(=O)c1ccc(C(=N)N)cc1)C(=O)N1CCC(OCC(=O)O)CC1 [RO-44-3888],half-life,[17],11.4 h
same,half-life,[18],5.1 h
N=C(N)NCCCC[C@@H]1NC(=O)CCSSC[C@@H](C(N)=O)NC(=O)[C@@H]2CCCN2C(=O)[C@H](Cc2c[nH]c3ccccc23)NC(=O)[C@H](CC(=O)O)NC(=O)CNC1=O [EPTIFIBATIDE] ([Mpa][hArg]GDWPC-NH2; disulfide 1-7),IC50,[19],570 nM
CCOC(=O)CN1CCN(C[C@@H]2CN(c3ccc(C(N)=NC(=O)OC)cc3)C(=O)O2)CC1 [GANTOFIBAN],bioavailability,[20],40%
same,half-life,[21],6 h
C[C@@]1(c2ccc(C(=N)N)cc2)NC(=O)N(CC(=O)NC(CC(=O)O)c2ccccc2)C1=O (some centres not stated),bioavailability,[5],42%
same,half-life,[17],9.9 h
O=C(O)CCNC(=O)c1ccc2c(c1)C(=O)N(CCC1CCNCC1)C2,IC50,[13],25 nM
same,inhibition,[22],90%
O=C(NC[C@H](NS(=O)(=O)c1ccccc1)C(=O)O)c1ccc(N2CCNCC2)cc1,IC50,[23],17 nM
CCOC(=O)CCNC(=O)N[C@H]1CCN(c2ccc(C(=N)N)cc2)C1=O [ORBOFIBAN],bioavailability,[5],28%
same,half-life,[24],18 h
N=C(N)c1ccc2oc(C(=O)NCCC(=O)NC[C@H](NS(=O)(=O)c3ccccc3)C(=O)O)cc2c1,IC50,[13],35 nM
C#C[C@H](CC(=O)OCC)NC(=O)CN1CCc2ccc(N3CCNCC3)cc2C1=O,bioavailability,[12],> 17%
same,bioavailability,[25],32%
CCCCS(=O)(=O)N[C@@H](CNC(=O)c1cc2n(n1)CCN(CCC1CCNCC1)C2=O)C(=O)O,Kd,[6],1.4 nM
N=C(N)c1ccc(C(=O)Nc2ccc3c(c2)CCN(CC(=O)O)C3=O)cc1,IC50,[13],90 nM
CCN(CC(=O)N[C@@H](CC(=O)O)C(=O)N[C@@H](Cc1ccccc1)C(N)=O)C(=O)CCCC1CCNCC1,IC50,[26],28 nM
same,IC50,[27],97 nM
CC(=O)N[C@H]1CSSC[C@@H](C(N)=O)NC(=O)[C@H](CC(=O)O)NC(=O)CNC(=O)[C@H](CCCN=C(N)N)N(C)C1=O (Ac-C[NMeR]GDC-NH2; disulfide 1-5),half-life,[24],1.1 h
same,IC50,[28],2.8 nM
same,IC50,[9],480 nM
CCCCOC(=O)N[C@@H](CNC(=O)C[C@H]1CC(c2ccc(C(=N)N)cc2)=NO1)C(=O)O,T1/2,[29],7 min
COC(=O)C[C@H]1C(=O)N(CC(=O)O)CCN1C(=O)CNC(=O)c1ccc(C(=N)N)cc1,inhibition,[30],40%
same,inhibition,[31],> 90%
O=C(NC[C@H](NS(=O)(=O)c1ccccc1)C(=O)O)c1cc2sc(CCC3CCNCC3)cc2s1,IC50,[13],7 nM
O=C(NC[C@H](NS(=O)(=O)c1ccccc1)C(=O)O)c1cc2cc(OCC3CCNCC3)ccc2[nH]1,inhibition,[32],95%
CN1Cc2cc(C(=O)N3CCC(C4CCNCC4)CC3)ccc2N[C@@H](CC(=O)O)C1=O [LOTRAFIBAN],duration of action,[33],> 8 h
same,Kd,[34],1.85 nM
O=C(NC[C@H](NS(=O)(=O)c1cccnc1)C(=O)O)c1cc2cc(CCC3CCNCC3)sc2s1,inhibition,[35],> 80%
same,IC50,[13],8 nM
CN1C(=O)CN(CCC(=O)O)C(=O)c2cc(C#Cc3ccc(C(=N)N)cc3)ccc21,IC50,[13],120 nM
CC(=O)N[C@@H](CCCN=C(N)N)C(=O)NCC(=O)N[C@@H](CC(=O)O)C(=O)N[C@H](C(N)=O)C(C)C (Ac-RGDV-NH2),IC50,[9],27000 nM
COc1ccc(C[C@H](NC(=O)[C@H](CC(=O)O)NC(=O)CNC(=O)[C@@H](N)CCCNC(=N)N)C(N)=O)cc1 (H-RGDY(Me)-NH2),IC50,[9],27000 nM
Cc1ccc(S(=O)(=O)N[C@@H](CNC(=O)c2cc3n(n2)CCCN(CCC2CCNCC2)C3=O)C(=O)O)cc1,inhibition,[36],66%
same,inhibition,[37],> 90%
same,inhibition,[38],79%
same,inhibition,[39],87%
C[C@@H](COc1ccc(N2CCN(c3ccncc3)CC2)cc1)CC(=O)O,bioavailability,[40],> 50%
